Reference: patent publication US20260232767A1, “INTERLEUKIN-23 RECEPTOR ANTAGONIST PEPTIDES FOR USE IN THE TREATMENT OF PSORIASIS” (Janssen Pharmaceutica NV, priority 2023, published 2026)

Tested on: subjects with moderate-to-severe plaque psoriasis
Assay: Safety, adverse events, Example 2 through Week 56
Assay type: in vivo, human
Conditions: 100 mg QD
Text: The LTE safety analysis was based on randomized participants in Example who entered the present long-term extension study and received at least one dose of study intervention (including a partial dose) during the study period.

CC(=O)NCCCC[C@@H]1NC(=O)[C@H](Cc2c[nH]c3c(C)cccc23)NC(=O)[C@H]([C@@H](C)O)NC(=O)[C@H](CC(N)=O)NC(=O)[C@@H](NC(C)=O)C(C)(C)SSC(C)(C)[C@@H](C(=O)N[C@@H](Cc2ccc(OCCN)cc2)C(=O)N[C@@H](Cc2ccc3ccccc3c2)C(=O)NC2(C(=O)N[C@@H](CCC(=O)O)C(=O)N[C@@H](CC(N)=O)C(=O)N[C@@H](Cc3cccnc3)C(=O)N(C)CC(N)=O)CCOCC2)NC1=O [IL-23 receptor antagonist peptide, Ac-[Pen]*-N-T-[W(7-Me)]-[Lys(Ac)]-[Pen]*-Phe[4-(2-aminoethoxy)]-[2-Nal]-[THP]-E-N-[3-Pal]-Sarc-NH2 (*[Pen]-[Pen]* formdisulfidebond)]
Subjects with treatment-emergent AE: Bronchitis (Week 16-56): 0 | Subjects with treatment-emergent AE: Meniscus injury (Week 16-56): 0 | Subjects with treatment-emergent AE: Sinusitis (Week 16-56): 0 | Subjects with treatment-emergent AE: Urinary tract infection (Week 16-56): 0 | Subjects with treatment-emergent serious AE: Cardiac disorders (Week 16-56): 0 | Subjects with treatment-emergent serious AE: Cerebrovascular accident (Week 16-56): 0 | Subjects with treatment-emergent serious AE: Coronary artery disease (Week 16-56): 0 | Subjects with treatment-emergent serious AE: Foot deformity (Week 16-56): 0 | Subjects with treatment-emergent serious AE: General disorders and administration site conditions (Week 16-56): 0 | Subjects with treatment-emergent serious AE: Injury, poisoning and procedural complications (Week 16-56): 0 | Subjects with treatment-emergent serious AE: Ligament injury (Week 16-56): 0 | Subjects with treatment-emergent serious AE: Neoplasms benign, malignant and unspecified (incl cysts and polyps) (Week 16-56): 0 | Subjects with treatment-emergent serious AE: Nervous system disorders (Week 16-56): 0 | Subjects with treatment-emergent serious AE: Non-cardiac chest pain (Week 16-56): 0 | Subjects with treatment-emergent serious AE: Respiratory, thoracic and mediastinal disorders (Week 16-56): 0 | Subjects with treatment-emergent serious AE: Tonsillar hypertrophy (Week 16-56): 0 | Subjects with treatment-emergent serious AE: Uterine leiomyoma (Week 16-56): 0 | Subjects with treatment-emergent serious AE: Ventricular dysfunction (Week 16-56): 0 | Acrochordon: % of subjects (through Week 56): (2.3%) | Acrochordon: number of subjects (through Week 56): 1 | Actinic keratosis: number of subjects (through Week 56): 0 | Alopecia: number of subjects (through Week 56): 0 | Asthenia: number of subjects (through Week 56): 0 | Asthma: % of subjects (through Week 56): (2.3%) | Asthma: number of subjects (through Week 56): 1 | Atrioventricular block first degree: % of subjects (through Week 56): (2.3%) | Atrioventricular block first degree: number of subjects (through Week 56): 1 | Basal cell carcinoma: number of subjects (through Week 56): 0 | Blood and lymphatic system disorders: number of subjects (through Week 56): 0 | Bronchitis chronic: % of subjects (through Week 56): (2.3%) | Bronchitis chronic: number of subjects (through Week 56): 1 | Bundle branch block right: number of subjects (through Week 56): 0 | Cardiac disorders: % of subjects (through Week 56): (2.3%) | Cardiac disorders: number of subjects (through Week 56): 1 | Chills: % of subjects (through Week 56): (2.3%) | Chills: number of subjects (through Week 56): 1 | Cholelithiasis: % of subjects (through Week 56): (2.3%) | Cholelithiasis: number of subjects (through Week 56): 1 | Chronic obstructive pulmonary disease: % of subjects (through Week 56): (2.3%) | Chronic obstructive pulmonary disease: number of subjects (through Week 56): 1 | Coronary artery disease: number of subjects (through Week 56): 0 | Cough: % of subjects (through Week 56): (7.0%) | Cough: number of subjects (through Week 56): 3 | Decreased appetite: number of subjects (through Week 56): 0 | Depression: % of subjects (through Week 56): (2.3%) | Depression: number of subjects (through Week 56): 1 | Dermal cyst: number of subjects (through Week 56): 0 | Dermatitis acneiform: number of subjects (through Week 56): 0 | Dermatitis contact: % of subjects (through Week 56): (2.3%) | Dermatitis contact: number of subjects (through Week 56): 1 | Diabetes mellitus: number of subjects (through Week 56): 0 | Diffuse alopecia: number of subjects (through Week 56): 0 | Dysuria: number of subjects (through Week 56): 0 | Ear and labyrinth disorders: % of subjects (through Week 56): (2.3%) | Ear and labyrinth disorders: number of subjects (through Week 56): 1 | Endocrine disorders: number of subjects (through Week 56): 0 | Eye disorders: number of subjects (through Week 56): 0 | Eyelid skin dryness: number of subjects (through Week 56): 0 | Fatigue: % of subjects (through Week 56): (2.3%) | Fatigue: number of subjects (through Week 56): 1 | General disorders and administration site conditions: % of subjects (through Week 56): (7.0%) | General disorders and administration site conditions: number of subjects (through Week 56): 3 | Goiter: number of subjects (through Week 56): 0 | Haemochromatosis: number of subjects (through Week 56): 0 | Hand dermatitis: number of subjects (through Week 56): 0 | Hematuria: number of subjects (through Week 56): 0 | Hepatobiliary disorders: % of subjects (through Week 56): (2.3%) | Hepatobiliary disorders: number of subjects (through Week 56): 1 | Hypercholesterolemia: % of subjects (through Week 56): (2.3%) | Hypercholesterolemia: number of subjects (through Week 56): 1 | Hyperglycemia: % of subjects (through Week 56): (2.3%) | Hyperglycemia: number of subjects (through Week 56): 1 | Hyperlipidemia: number of subjects (through Week 56): 0 | Hypertension: % of subjects (through Week 56): (2.3%) | Hypertension: number of subjects (through Week 56): 1 | Hypertransaminasemia: number of subjects (through Week 56): 0 | Hypertriglyceridemia: number of subjects (through Week 56): 0 | Hypoacusis: number of subjects (through Week 56): 0 | Immune system disorders: number of subjects (through Week 56): 0 | Influenza like illness: number of subjects (through Week 56): 0 | Insomnia: % of subjects (through Week 56): (2.3%) | Insomnia: number of subjects (through Week 56): 1 | Intertrigo: number of subjects (through Week 56): 0 | Ketonuria: number of subjects (through Week 56): 0 | Leukocyturia: % of subjects (through Week 56): (2.3%) | Leukocyturia: number of subjects (through Week 56): 1 | Leukopenia: number of subjects (through Week 56): 0 | Libido decreased: % of subjects (through Week 56): (2.3%) | Libido decreased: number of subjects (through Week 56): 1 | Liver disorder: number of subjects (through Week 56): 0 | Lymphopenia: number of subjects (through Week 56): 0 | Menopause: number of subjects (through Week 56): 0 | Metabolism and nutrition disorders: % of subjects (through Week 56): (4.7%) | Metabolism and nutrition disorders: number of subjects (through Week 56): 2 | Neoplasms benign, malignant and unspecified (incl cysts and polyps): % of subjects (through Week 56): (2.3%) | Neoplasms benign, malignant and unspecified (incl cysts and polyps): number of subjects (through Week 56): 1 | Nephrolithiasis: % of subjects (through Week 56): (2.3%) | Nephrolithiasis: number of subjects (through Week 56): 1 | Neutropenia: number of subjects (through Week 56): 0 | Night sweats: number of subjects (through Week 56): 0 | Non-cardiac chest pain: number of subjects (through Week 56): 0 | Ocular cyst: number of subjects (through Week 56): 0 | Oedema peripheral: % of subjects (through Week 56): (2.3%) | Oedema peripheral: number of subjects (through Week 56): 1 | Oropharyngeal pain: % of subjects (through Week 56): (2.3%) | Oropharyngeal pain: number of subjects (through Week 56): 1 | Procedural pain: number of subjects (through Week 56): 0 | Productive cough: number of subjects (through Week 56): 0 | Proteinuria: number of subjects (through Week 56): 0 | Pruritus: % of subjects (through Week 56): (2.3%) | Pruritus: number of subjects (through Week 56): 1 | Psoriasis: number of subjects (through Week 56): 0 | Psychiatric disorders: % of subjects (through Week 56): (7.0%) | Psychiatric disorders: number of subjects (through Week 56): 3 | Pyrexia: number of subjects (through Week 56): 0 | Rash pruritic: number of subjects (through Week 56): 0 | Renal and urinary disorders: % of subjects (through Week 56): (4.7%) | Renal and urinary disorders: number of subjects (through Week 56): 2 | Renal mass: number of subjects (through Week 56): 0 | Respiratory, thoracic and mediastinal disorders: % of subjects (through Week 56): (9.3%)
